Some test systems named below: 786-0; COLO 205; IGROV-1; KM12; LOX IMVI; Malme-3M; NCI-H522; OVCAR-8; SF-295; SF-539; SN12C; SNB-19; SR; TK-10; U-251; UACC-257; CAKI-1; A498.
Common to all, as to test: NCI-60 cell line screen, 48 h

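Cells were grown in 96-well plates and exposed to each compound for 48 hours at five concentrations; endpoints were interpolated linearly between bracketing concentrations, or set to the highest concentration if not reached. GI50: concentration for 50% inhibition of growth.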 Active and inactive are the calls of the source. No stated cut-off is given here; in the data, active = GI50 up to about 1.1 µM and inactive = higher.

On to `COc1cc2ccnc3c2c(c1OC)CC1CC(O)C(OC)CC31` (stereo not given), for which the GI50 in the test on 786-0 was 33.5 µM (inactive); in the test with COLO 205, 43.2 µM (inactive); with IGROV-1, 66.4 µM (inactive); in the test on KM12 it was 40.9 µM (inactive); in the test on LOX IMVI, 31.7 µM (inactive); in the test with Malme-3M, > 100 µM (inactive). For the same compound, the GI50 in the test with NCI-H522 was 60.1 µM (inactive); in the test on OVCAR-8 it was 53.8 µM (inactive); in the test on SF-295, 36.6 µM (inactive); in the test on SF-539 it was 24.4 µM (inactive); in the test with SN12C, 41.4 µM (inactive); in the test with SNB-19 it was 99.3 µM (inactive). Moreover, the GI50 in the test on SR was 32 µM (inactive); in the test with TK-10 it was 53.8 µM (inactive); in the test with U-251 it was 38 µM (inactive); in the test on UACC-257, 37.1 µM (inactive).

Regarding `COc1cc2c(cc1OC)C(=O)N1CCCC1C(=O)S2` (stereo not given), the GI50 was > 100 µM (inactive) in the test with 786-0; > 100 µM (inactive) with COLO 205; 19.9 µM (inactive) in the test on IGROV-1; > 100 µM (inactive) in the test on KM12; > 100 µM (inactive) in the test with LOX IMVI; > 100 µM (inactive) with Malme-3M. Moreover, the GI50 in the test on NCI-H522, with OVCAR-8, in the test on SF-295, with SF-539, with SN12C and in the test with SNB-19 was > 100 µM (inactive) in each case. Besides, the GI50 in the test on SR, with TK-10, in the test on U-251 and in the test with UACC-257 was > 100 µM (inactive) in each case.

In the case of `Cc1nc(N)nc(N)c1CCCCc1ccc(N)cc1`, the GI50 is 0.728 µM (active) with 786-0; 9.66 µM (inactive) in the test with CAKI-1; 10.4 µM (inactive) in the test on COLO 205; 3.35 µM (inactive) in the test on IGROV-1; 9.35 µM (inactive) in the test with KM12; 1.09 µM (active) with LOX IMVI. Also, the GI50 in the test on Malme-3M is 1.96 µM (inactive); in the test with NCI-H522 it was 4.26 µM (inactive); in the test on OVCAR-8, 3.18 µM (inactive); in the test on SF-295 it was 1.94 µM (inactive); with SF-539 it was 7.98 µM (inactive); in the test with SN12C, 4.3 µM (inactive). Besides, the GI50 in the test on SNB-19 was 6.87 µM (inactive); in the test with SR it was 1.28 µM (inactive); in the test with TK-10, 11.5 µM (inactive); in the test with U-251, 3.03 µM (inactive); with UACC-257, 5.07 µM (inactive).

In the case of `CCOC(=O)C(=O)Nc1ccc([N+](=O)[O-])cc1C#N`, the GI50 with 786-0, with CAKI-1, in the test on IGROV-1, in the test with KM12, with LOX IMVI and in the test on Malme-3M was > 100 µM (inactive) each time. Also, the GI50 in the test with NCI-H522, in the test with OVCAR-8, in the test with SF-295, in the test with SF-539, in the test with SN12C and with SNB-19 was > 100 µM (inactive) in each case. Besides, the GI50 in the test with SR, in the test on TK-10, in the test with U-251 and in the test on UACC-257 was > 100 µM (inactive) throughout.

With `COC(=O)C1CC(C(=O)OC)c2nc3cc(C)ccc3nc21` (stereo not given), the GI50 in the test with 786-0, in the test with A498, with CAKI-1, with COLO 205, with IGROV-1 and in the test on KM12 was > 100 µM (inactive) each time. Further, the GI50 in the test with LOX IMVI, in the test on Malme-3M, in the test on NCI-H522, in the test with OVCAR-8, in the test with SF-295 and in the test with SF-539 was > 100 µM (inactive) throughout. Moreover, the GI50 with SN12C is > 100 µM (inactive); in the test with SNB-19, > 100 µM (inactive); in the test with TK-10 it was > 100 µM (inactive); in the test on U-251, > 100 µM (inactive); with UACC-257 it was 58.3 µM (inactive).

Take `CCO[C@]12C[C@H](OC)[C@@]3(O)CC(C1[C@H]3OCc1ccccc1)C13C4C2[C@H](OC)C1[C@](COC)(CN4CC)[C@H](O)C[C@@H]3OC` (stereo not given in full): the GI50 in the test with 786-0 was 7.38 µM (inactive); in the test on COLO 205 it was > 100 µM (inactive); with IGROV-1 it was > 100 µM (inactive); with LOX IMVI, > 100 µM (inactive); with OVCAR-8, > 100 µM (inactive); in the test on SF-539, > 100 µM (inactive). For the same compound, the GI50 was > 100 µM (inactive) in the test with SN12C; > 100 µM (inactive) in the test with SNB-19; 78.5 µM (inactive) in the test with SR; > 100 µM (inactive) in the test on TK-10; > 100 µM (inactive) with U-251; > 100 µM (inactive) with UACC-257.

For the compound `CNC(=O)NCNC(=O)NC`, the GI50 in the test on 786-0, with A498, with CAKI-1, with COLO 205, in the test with IGROV-1 and in the test with KM12 was > 100 µM (inactive) throughout. The GI50 in the test on LOX IMVI, in the test on Malme-3M, with OVCAR-8, with SF-295, in the test on SF-539 and in the test with TK-10 was > 100 µM (inactive) throughout. The GI50 with U-251 and in the test on UACC-257 was > 100 µM (inactive) in each case.

As to `Cc1ccc2[nH]c3c4c5ccccc5nc-4c[nH]c3c2c1`, the GI50 in the test on 786-0 is 17.1 µM (inactive); with CAKI-1, 15.8 µM (inactive); with COLO 205, 17.5 µM (inactive); in the test with IGROV-1, 15 µM (inactive); with KM12, 15.6 µM (inactive); in the test with LOX IMVI, 17.2 µM (inactive). In addition, the GI50 is 19.1 µM (inactive) in the test on Malme-3M; 21.5 µM (inactive) with NCI-H522; 18.6 µM (inactive) in the test with OVCAR-8; 17.2 µM (inactive) with SF-295; 16.9 µM (inactive) in the test with SF-539; 16.3 µM (inactive) in the test with SN12C. Further, the GI50 in the test on SNB-19 was 17.3 µM (inactive); with TK-10 it was 21 µM (inactive); in the test with U-251 it was 14.8 µM (inactive); in the test with UACC-257, 18.1 µM (inactive).

In the case of `Cc1cc(N(CCC#N)CCC#N)ccc1/C=C1\N=C(c2cc([N+](=O)[O-])ccc2Cl)N(NC(=O)c2ccc(/N=C\c3ccc(N(CCC#N)S(C)(=O)=O)cc3C)cc2)C1=O`, the GI50 with 786-0, in the test with A498, in the test on CAKI-1, in the test on COLO 205, with IGROV-1 and with KM12 was > 100 µM (inactive) each time. The GI50 in the test with LOX IMVI, in the test with Malme-3M, in the test with NCI-H522, in the test on OVCAR-8, in the test on SF-539 and in the test on SN12C was > 100 µM (inactive) each time. Moreover, the GI50 in the test with SNB-19 was > 100 µM (inactive); with TK-10 it was > 100 µM (inactive); in the test with U-251, > 100 µM (inactive); in the test on UACC-257, 63.4 µM (inactive).

Values taken from ChEMBL document CHEMBL1201862, “PubChem BioAssay data set” (2004).
